One block for each compound: values may come before it.
Test system: Cholesterol Biosynthesis Genes in the Mouse Liver
Assay: Microarray expression of cholesterol biosynthesis genes in mouse liver
Assay type: in vivo
Experimental: A number of PHI compounds were evaluated for their effect on the expression of cholesterol biosynthesis genes in mouse liver. […] Liver tissue was harvested and stored in RNALater (Life Technologies). Total RNA was isolated with Trizol (Life Technologies) and purified with RNEasy96 (Qiagen) according to the manufacturers' protocols. RNA concentration was measured by NanoDrop (Thermo), and quality was assessed by Bioanalyzer (Agilent).
Biotinylated microarray probe was prepared using the 3′IVT Express kit (Affymetrix) and hybridized to mouse 430A 2.0 arrays as recommended in the manufacturer's protocol. Arrays were stained, washed, and scanned using Affymetrix equipment and software. Three arrays were run for each treatment and time point, each representing the liver sample from one individual animal.
Animals were sacrificed 4 h or 8 h later. Each compound was tested in a separate animal study with separate controls. Liver tissue was harvested and stored in RNALater (Life Technologies). Total RNA was isolated with Trizol (Life Technologies) and purified with RNEasy96 (Qiagen) according to the manufacturers' protocols. RNA concentration was measured by NanoDrop (Thermo), and quality was assessed by Bioanalyzer (Agilent).
For microarray analysis, RNA from animals in each treatment group was pooled in pairs (n=3 pairs for 4 h vehicle, n=2 pairs for all other treatment groups, for a total of 13 arrays per compound study). This approach was used to improve the signal-to-noise ratio on microarrays. Biotinylated probe was prepared using the One-Cycle cDNA synthesis kit (Affymetrix) and hybridized to mouse 430A 2.0 arrays as recommended in the manufacturer's protocol. Arrays were stained, washed, and scanned using Affymetrix equipment and software.
Array quality was assessed with GeneChip Operating System and/or Command Console software (Affymetrix). CEL files were uploaded to GeneSpring 7.3.1 (Agilent) using GC-RMA baseline correction. Principal Components Analysis was used to identify and reject outlier arrays. Data are reported as fold-change compared to timepoint-matched vehicle controls from the same study. Values less than 1.0 indicate a reduction of RNA in the treated animal liver tissue.

3-hydroxy-3-methylglutaryl-Coenzyme A reductase (Hmgcr) RNA expression (10 mg/kg oral, 4 h): 0.17 fold-change
3-hydroxy-3-methylglutaryl-Coenzyme A synthase 1 (Hmgcs1) RNA expression (10 mg/kg oral, 4 h): 0.36 fold-change
7-dehydrocholesterol reductase (Dhcr7) RNA expression (10 mg/kg oral, 4 h): 0.63 fold-change
NAD(P) dependent steroid dehydrogenase-like (Nsdhl) RNA expression (10 mg/kg oral, 4 h): 0.55 fold-change
acetyl-Coenzyme A acetyltransferase 2 (Acat2) RNA expression (10 mg/kg oral, 4 h): 0.77 fold-change
farnesyl diphosphate farnesyl transferase 1 (Fdft1) RNA expression (10 mg/kg oral, 4 h): 0.56 fold-change
farnesyl diphosphate synthetase (Fdps) RNA expression (10 mg/kg oral, 4 h): 0.43 fold-change
isopentenyl-diphosphate delta isomerase (Idi1) RNA expression (10 mg/kg oral, 4 h): 0.50 fold-change
mevalonate (diphospho) decarboxylase (Mvd) RNA expression (10 mg/kg oral, 4 h): 0.28 fold-change
mevalonate kinase (Mvk) RNA expression (10 mg/kg oral, 4 h): 0.76 fold-change
phosphomevalonate kinase (Pmvk) RNA expression (10 mg/kg oral, 4 h): 0.66 fold-change
squalene epoxidase (Sqle) RNA expression (10 mg/kg oral, 4 h): 0.48 fold-change
sterol-C4-methyl oxidase-like (Sc4mol) RNA expression (10 mg/kg oral, 4 h): 0.39 fold-change
sterol-C5-desaturase (fungal ERG3, delta-5-desaturase) homolog (S. cerevisae) (Sc5d) RNA expression (10 mg/kg oral, 4 h): 0.49 fold-change
3-hydroxy-3-methylglutaryl-Coenzyme A reductase (Hmgcr) RNA expression (10 mg/kg oral, 8 h): 0.66 fold-change
3-hydroxy-3-methylglutaryl-Coenzyme A synthase 1 (Hmgcs1) RNA expression (10 mg/kg oral, 8 h): 1.23 fold-change
7-dehydrocholesterol reductase (Dhcr7) RNA expression (10 mg/kg oral, 8 h): 1.18 fold-change
NAD(P) dependent steroid dehydrogenase-like (Nsdhl) RNA expression (10 mg/kg oral, 8 h): 1.40 fold-change
acetyl-Coenzyme A acetyltransferase 2 (Acat2) RNA expression (10 mg/kg oral, 8 h): 1.09 fold-change
farnesyl diphosphate farnesyl transferase 1 (Fdft1) RNA expression (10 mg/kg oral, 8 h): 1.42 fold-change
farnesyl diphosphate synthetase (Fdps) RNA expression (10 mg/kg oral, 8 h): 1.15 fold-change
isopentenyl-diphosphate delta isomerase (Idi1) RNA expression (10 mg/kg oral, 8 h): 1.08 fold-change
mevalonate (diphospho) decarboxylase (Mvd) RNA expression (10 mg/kg oral, 8 h): 0.58 fold-change
mevalonate kinase (Mvk) RNA expression (10 mg/kg oral, 8 h): 0.88 fold-change
phosphomevalonate kinase (Pmvk) RNA expression (10 mg/kg oral, 8 h): 1.53 fold-change
squalene epoxidase (Sqle) RNA expression (10 mg/kg oral, 8 h): 0.81 fold-change
sterol-C4-methyl oxidase-like (Sc4mol) RNA expression (10 mg/kg oral, 8 h): 0.92 fold-change
sterol-C5-desaturase (fungal ERG3, delta-5-desaturase) homolog (S. cerevisae) (Sc5d) RNA expression (10 mg/kg oral, 8 h): 0.52 fold-change
SMILES: COc1ccc(Cn2c(Cl)c(Cl)c3c(O)c(C(=O)NCC(=O)O)nc(C#N)c32)cc1 [Compound F]
cytochrome P450, family 51 (Cyp51) RNA expression (10 mg/kg oral, 4 h): 0.62 fold-change
lanosterol synthase (Lss) RNA expression (10 mg/kg oral, 4 h): 0.51 fold-change
cytochrome P450, family 51 (Cyp51) RNA expression (10 mg/kg oral, 8 h): 1.05 fold-change
lanosterol synthase (Lss) RNA expression (10 mg/kg oral, 8 h): 1.04 fold-change

SMILES: N#Cc1nc(C(=O)NCC(=O)O)c(O)c2ccn(Cc3ccc4ccccc4c3)c12 [Compound J, [(7-Cyano-4-hydroxy-1-naphthalen-2-ylmethyl-1H-pyrrolo[2,3-c]pyridine-5-carbonyl)-amino]-acetic acid]
3-hydroxy-3-methylglutaryl-Coenzyme A reductase (Hmgcr) RNA expression (10 mg/kg oral, 4 h): 0.38 fold-change
3-hydroxy-3-methylglutaryl-Coenzyme A synthase 1 (Hmgcs1) RNA expression (10 mg/kg oral, 4 h): 0.28 fold-change
7-dehydrocholesterol reductase (Dhcr7) RNA expression (10 mg/kg oral, 4 h): 0.52 fold-change
NAD(P) dependent steroid dehydrogenase-like (Nsdhl) RNA expression (10 mg/kg oral, 4 h): 0.42 fold-change
acetyl-Coenzyme A acetyltransferase 2 (Acat2) RNA expression (10 mg/kg oral, 4 h): 0.58 fold-change
cytochrome P450, family 51 (Cyp51) RNA expression (10 mg/kg oral, 4 h): 0.38 fold-change
farnesyl diphosphate farnesyl transferase 1 (Fdft1) RNA expression (10 mg/kg oral, 4 h): 0.70 fold-change
farnesyl diphosphate synthetase (Fdps) RNA expression (10 mg/kg oral, 4 h): 0.38 fold-change
isopentenyl-diphosphate delta isomerase (Idi1) RNA expression (10 mg/kg oral, 4 h): 0.25 fold-change
lanosterol synthase (Lss) RNA expression (10 mg/kg oral, 4 h): 0.77 fold-change
mevalonate (diphospho) decarboxylase (Mvd) RNA expression (10 mg/kg oral, 4 h): 0.72 fold-change
mevalonate kinase (Mvk) RNA expression (10 mg/kg oral, 4 h): 0.79 fold-change
phosphomevalonate kinase (Pmvk) RNA expression (10 mg/kg oral, 4 h): 0.59 fold-change
squalene epoxidase (Sqle) RNA expression (10 mg/kg oral, 4 h): 0.26 fold-change
sterol-C4-methyl oxidase-like (Sc4mol) RNA expression (10 mg/kg oral, 4 h): 0.27 fold-change
sterol-C5-desaturase (fungal ERG3, delta-5-desaturase) homolog (S. cerevisae) (Sc5d) RNA expression (10 mg/kg oral, 4 h): 1.22 fold-change
3-hydroxy-3-methylglutaryl-Coenzyme A reductase (Hmgcr) RNA expression (10 mg/kg oral, 8 h): 0.43 fold-change
3-hydroxy-3-methylglutaryl-Coenzyme A synthase 1 (Hmgcs1) RNA expression (10 mg/kg oral, 8 h): 0.92 fold-change
7-dehydrocholesterol reductase (Dhcr7) RNA expression (10 mg/kg oral, 8 h): 0.94 fold-change
NAD(P) dependent steroid dehydrogenase-like (Nsdhl) RNA expression (10 mg/kg oral, 8 h): 1.03 fold-change
acetyl-Coenzyme A acetyltransferase 2 (Acat2) RNA expression (10 mg/kg oral, 8 h): 0.91 fold-change
cytochrome P450, family 51 (Cyp51) RNA expression (10 mg/kg oral, 8 h): 0.80 fold-change
farnesyl diphosphate farnesyl transferase 1 (Fdft1) RNA expression (10 mg/kg oral, 8 h): 0.66 fold-change
farnesyl diphosphate synthetase (Fdps) RNA expression (10 mg/kg oral, 8 h): 0.66 fold-change
isopentenyl-diphosphate delta isomerase (Idi1) RNA expression (10 mg/kg oral, 8 h): 0.70 fold-change
lanosterol synthase (Lss) RNA expression (10 mg/kg oral, 8 h): 0.76 fold-change
mevalonate (diphospho) decarboxylase (Mvd) RNA expression (10 mg/kg oral, 8 h): 0.83 fold-change
mevalonate kinase (Mvk) RNA expression (10 mg/kg oral, 8 h): 0.79 fold-change
phosphomevalonate kinase (Pmvk) RNA expression (10 mg/kg oral, 8 h): 0.84 fold-change
squalene epoxidase (Sqle) RNA expression (10 mg/kg oral, 8 h): 1.03 fold-change
sterol-C4-methyl oxidase-like (Sc4mol) RNA expression (10 mg/kg oral, 8 h): 0.52 fold-change
sterol-C5-desaturase (fungal ERG3, delta-5-desaturase) homolog (S. cerevisae) (Sc5d) RNA expression (10 mg/kg oral, 8 h): 0.81 fold-change

SMILES: CC(C)Oc1ccc2c(O)c(C(=O)NCC(=O)O)nc(C#N)c2c1 [Compound H, [(1-Cyano-4-hydroxy-7-isopropoxy-isoquinoline-3-carbonyl)-amino]-acetic acid]
3-hydroxy-3-methylglutaryl-Coenzyme A reductase (Hmgcr) RNA expression (60 mg/kg oral, 4 h): 0.23 fold-change
3-hydroxy-3-methylglutaryl-Coenzyme A synthase 1 (Hmgcs1) RNA expression (60 mg/kg oral, 4 h): 0.62 fold-change
7-dehydrocholesterol reductase (Dhcr7) RNA expression (60 mg/kg oral, 4 h): 0.83 fold-change
NAD(P) dependent steroid dehydrogenase-like (Nsdhl) RNA expression (60 mg/kg oral, 4 h): 0.76 fold-change
acetyl-Coenzyme A acetyltransferase 2 (Acat2) RNA expression (60 mg/kg oral, 4 h): 0.71 fold-change
cytochrome P450, family 51 (Cyp51) RNA expression (60 mg/kg oral, 4 h): 0.66 fold-change
farnesyl diphosphate farnesyl transferase 1 (Fdft1) RNA expression (60 mg/kg oral, 4 h): 0.59 fold-change
farnesyl diphosphate synthetase (Fdps) RNA expression (60 mg/kg oral, 4 h): 0.69 fold-change
isopentenyl-diphosphate delta isomerase (Idi1) RNA expression (60 mg/kg oral, 4 h): 0.63 fold-change
lanosterol synthase (Lss) RNA expression (60 mg/kg oral, 4 h): 0.65 fold-change
mevalonate (diphospho) decarboxylase (Mvd) RNA expression (60 mg/kg oral, 4 h): 0.45 fold-change
mevalonate kinase (Mvk) RNA expression (60 mg/kg oral, 4 h): 0.74 fold-change
phosphomevalonate kinase (Pmvk) RNA expression (60 mg/kg oral, 4 h): 0.71 fold-change
squalene epoxidase (Sqle) RNA expression (60 mg/kg oral, 4 h): 0.95 fold-change
sterol-C4-methyl oxidase-like (Sc4mol) RNA expression (60 mg/kg oral, 4 h): 0.50 fold-change
sterol-C5-desaturase (fungal ERG3, delta-5-desaturase) homolog (S. cerevisae) (Sc5d) RNA expression (60 mg/kg oral, 4 h): 0.92 fold-change
3-hydroxy-3-methylglutaryl-Coenzyme A reductase (Hmgcr) RNA expression (60 mg/kg oral, 8 h): 0.17 fold-change
3-hydroxy-3-methylglutaryl-Coenzyme A synthase 1 (Hmgcs1) RNA expression (60 mg/kg oral, 8 h): 0.19 fold-change
7-dehydrocholesterol reductase (Dhcr7) RNA expression (60 mg/kg oral, 8 h): 0.39 fold-change
NAD(P) dependent steroid dehydrogenase-like (Nsdhl) RNA expression (60 mg/kg oral, 8 h): 0.34 fold-change
acetyl-Coenzyme A acetyltransferase 2 (Acat2) RNA expression (60 mg/kg oral, 8 h): 0.44 fold-change
cytochrome P450, family 51 (Cyp51) RNA expression (60 mg/kg oral, 8 h): 0.28 fold-change
farnesyl diphosphate farnesyl transferase 1 (Fdft1) RNA expression (60 mg/kg oral, 8 h): 0.33 fold-change
farnesyl diphosphate synthetase (Fdps) RNA expression (60 mg/kg oral, 8 h): 0.24 fold-change
isopentenyl-diphosphate delta isomerase (Idi1) RNA expression (60 mg/kg oral, 8 h): 0.28 fold-change
lanosterol synthase (Lss) RNA expression (60 mg/kg oral, 8 h): 0.35 fold-change
mevalonate (diphospho) decarboxylase (Mvd) RNA expression (60 mg/kg oral, 8 h): 0.24 fold-change
mevalonate kinase (Mvk) RNA expression (60 mg/kg oral, 8 h): 0.37 fold-change
phosphomevalonate kinase (Pmvk) RNA expression (60 mg/kg oral, 8 h): 0.5 fold-change
squalene epoxidase (Sqle) RNA expression (60 mg/kg oral, 8 h): 0.30 fold-change
sterol-C4-methyl oxidase-like (Sc4mol) RNA expression (60 mg/kg oral, 8 h): 0.19 fold-change
sterol-C5-desaturase (fungal ERG3, delta-5-desaturase) homolog (S. cerevisae) (Sc5d) RNA expression (60 mg/kg oral, 8 h): 0.61 fold-change
